Measurements taken from article PMC7796304, “Nephrotoxic Potential of Putative 3,5-Dichloroaniline (3,5-DCA) Metabolites and Biotransformation of 3,5-DCA in Isolated Kidney Cells from Fischer 344 Rats” (International Journal of Molecular Sciences, 2020).

Assays:
[1] = test system: isolated kidney cells (IKC); assay: LDH release cytotoxicity, time and concentration course, in isolated kidney cells; settings: for LDH release (marker of cytotoxicity) / nephrotoxic potential among the metabolites tested: 0-1.5 mM; for LDH release (marker of cytotoxicity): 60 or 90 min; for nephrotoxic potential among the metabolites tested: up to 90 min
[2] = test system: isolated kidney cells (IKC); assay: 3,5-DCA metabolism by IKC, HPLC of media and cells; settings: for free aminochlorophenol after arylsulfatase or β-glucuronidase treatment of media or cell lysates: 45 or 90 min
Experimental: At the end of the incubation period, 1.0 mL samples were collected, and media and cells separated by centrifugation. The pelleted cells were washed with KH buffer (no bovine serum albumin), and the rinse was added to the media. Cells were lysed via sonication and protein was precipitated by methanol (1.0 mL) addition to all samples. Samples were centrifuged (3000 g; 10 min, 4 °C) and the supernatant filtered through a 0.45 µ syringe filter and stored at −20 °C until analyzed by HPLC as described below.
To determine if sulfate or glucuronide conjugates were formed, in some experiments, media and cell supernatant fractions obtained as described above were treated with β-glucuronidase (6500 units/mL, final concentration) or arylsulfatase (200 units/mL, final concentration) + saccaharolactone (20 mM, final concentration) for 18 h (37 °C) in 0.1 M acetate buffer (pH 5.0) to hydrolyze any glucuronide or sulfate conjugates, respectively, that were formed [26]. Hydrolysis was stopped by the addition of cold methanol (2.4 mL). The fractions were then filtered and stored until analyzed as described above.
Chromatograms were collected and integrated using Empower 3 software (Waters Co., Milford, MA, USA). A Waters X Select HSS T3 C18 column (3.5 µm; 4.6 × 150 mm^2) fitted with a Waters XSelect HSS T3 VanGuard Cartridge (3.5 µm; 3.9 × 5 mm^2) was used for separation of compounds. The mobile phase consisted of 50:50 methanol:water with a flow rate of 0.75 mL/min. Standard curves, limits of detection, and extraction coefficients were determined for 3,5-DCA and putative metabolites. Extraction coefficients were determined by comparing the integration of a 1.0 mM 3,5-DCA or a metabolite sample that had undergone sample processing (i.e., the addition of methanol and centrifugation) to that of a unprocessed 1.0 mM 3,5-DCA or metabolite sample.

[3] = test system: isolated kidney cells (IKC); assay: Effect of DEDTCA pretreatment on 3,5-DCA metabolism in IKC; settings: 90 min; for detection as 3,5-DCA metabolite in media and cells: DEDTCA experiment; for detection as 3,5-DCA metabolite in media and cells / Percent of Dose, Cells / Percent of Dose, Media: 3,5-DCA 1.0 mM; for Percent of Dose, Cells / Percent of Dose, Media: N = 4, mean ± SE
Experimental: In a separate experiment, cells were pretreated with diethyldithiocarbamic acid (DEDTCA, 0.1 mM, 30 min pretreatment), a CYP2C inhibitor, before 3,5-DCA addition to determine which metabolites were decreased with DEDTCA pretreatment. Following the 90 min incubation period, cells and media were treated and stored as described above for the determination of 3,5-DCA concentrations and the concentrations of 3,5-DCA metabolites formed.
Samples (75 µL) of media and lysed IKC were analyzed on a Waters Alliance e2695 HPLC system (Waters Co., Milford, MA, USA), utilizing a Waters 2489 variable UV/Vis detector at 254 nM. Chromatograms were collected and integrated using Empower 3 software (Waters Co., Milford, MA, USA). A Waters X Select HSS T3 C18 column (3.5 µm; 4.6 × 150 mm^2) fitted with a Waters XSelect HSS T3 VanGuard Cartridge (3.5 µm; 3.9 × 5 mm^2) was used for separation of compounds. The mobile phase consisted of 50:50 methanol:water with a flow rate of 0.75 mL/min. Standard curves, limits of detection, and extraction coefficients were determined for 3,5-DCA and putative metabolites. Extraction coefficients were determined by comparing the integration of a 1.0 mM 3,5-DCA or a metabolite sample that had undergone sample processing (i.e., the addition of methanol and centrifugation) to that of a unprocessed 1.0 mM 3,5-DCA or metabolite sample.

[4] = parameters: method as in PMID 26808022; settings: calculated, Fischer 344 rat; cited from earlier work
[5] = test system: isolated kidney cells (IKC); parameters: method as in PMID 26808022; settings: 90 min exposure; cited from earlier work
[6] = test system: isolated kidney cells (IKC); parameters: method as in PMID 26808022; settings: cited from earlier work
[7] = test system: kidney; settings: cited from earlier work
[8] = test system: renal cortical slices; settings: cited from earlier work
[9] = test system: rat renal cortical slices; parameters: method as in PMID 18243470; settings: 2 h exposure; cited from earlier work
[10] = test system: rat renal cortical slices; parameters: method as in PMID 8023337; settings: cited from earlier work
[11] = test system: isolated kidney cells (IKC); parameters: method as in PMID 26808022; settings: cited from earlier work; remark: listed apart in the source
[12] = test system: isolated kidney cells (IKC); assay: Pretreatment with antioxidants or enzyme inhibitors before 3,5-DCNB, LDH release in IKC; settings: 1.0 mM 3,5-DCNB, 60 min, pretreatment concentrations per Table 4
[13] = test system: isolated kidney cells (IKC); settings: 0.5 mM 3,5-DCPHA, 60 min, pretreatment concentrations per Table 4
[14] = IKC incubated with 1.0 mM 3,5-DCA
[15] = IKC incubated with 0.5 mM 3,5-DCA, 90 min, N = 3, mean ± SE
[16] = IKC incubated with 1.0 mM 3,5-DCA, 90 min, N = 4, mean ± SE
[17] = +DEDTCA (0.1 mM, 30 min pretreatment)

Nc1cc(Cl)cc(Cl)c1O [2-A-4,6-DCP, 2-amino-4,6-dichlorophenol]
LDH release (marker of cytotoxicity) [1]: did not result in significant increases in LDH release
nephrotoxic potential among the metabolites tested [1]: not cytotoxic
free aminochlorophenol after arylsulfatase or β-glucuronidase treatment of media or cell lysates [2, 14]: did not reveal any free 2-A-4,6-DCP or 4-A-2,6-DCP
detection as 3,5-DCA metabolite in media and cells [3]: no 2-A-4,6-DCP, 4-A-2,6-DCP or 3,5-DCPHA detected

Nc1cc(Cl)cc(Cl)c1 [3,5-DCA, 3,5-dichloroaniline]
concentration that induces cytotoxicity (increased LDH release) ([1]; 90 min): 1000 µM
non-cytotoxic concentration ([1]; 90 min): 0.5 mM
maximum blood level from a nephrotoxic dose [4]: ~ 1.25 mM
concentration leading to increased LDH release [5]: ≥ 1000 µM
Percentage of Dose, Cells [2, 15]: 6.82 ± 3.33%
Percentage of Dose, Media [2, 15]: 89.31 ± 6.32%
Percentage of Dose, Cells [2, 16]: 13.19 ± 2.12%
Percentage of Dose, Media [2, 16]: 87.13 ± 4.56%
fraction of 3,5-DCA metabolized to 3,5-DCAA and 3,5-DCNB ([2]; IKC, 0.5 or 1.0 mM, 90 min): Less than 5%
reduced and total glutathione levels [6]: both reduced
Percent of Dose, Cells [3, 17]: 14.67 ± 1.78%
Percent of Dose, Media [3, 17]: 91.14 ± 3.04%
Percent of Dose, Cells ([3]; −DEDTCA): 16.01 ± 2.02%
Percent of Dose, Media ([3]; −DEDTCA): 89.43 ± 5.66%
renal effects of in vivo exposure ([7]; Sprague–Dawley or Fischer 344 rats): elevated blood urea nitrogen (BUN) concentration, decreased organic ion transport in proximal tubular cells, decreased kidney weight, proteinuria, and hematuria

CC(=O)Nc1cc(Cl)cc(Cl)c1 [3,5-DCAA, 3,5-dichloroacetanilide]
LDH release (marker of cytotoxicity) [1]: did not significantly increase LDH release
nephrotoxic potential among the metabolites tested [1]: not cytotoxic
Percentage of Dose, Cells [2, 15]: 0.07 ^ %
Percentage of Dose, Media [2, 15]: 1.86 ± 0.42%
Percentage of Dose, Media [2, 16]: 0.56 ± 0.07%
Percent of Dose, Media [3, 17]: 0.30 ± 0.05%
Percent of Dose, Cells ([3]; −DEDTCA): 0.02 ^ %
Percent of Dose, Media ([3]; −DEDTCA): 0.50 ± 0.03%

O=[N+]([O-])c1cc(Cl)cc(Cl)c1 [3,5-DCNB, 3,5-dichloronitrobenzene]
nephrotoxic potential among the metabolites tested [1]: intermediate in nephrotoxic potential
concentration giving significant increase in LDH release ([1]; 90 min exposure): ≥ 1000 µM
nephrotoxic potential among dichloronitrobenzenes [8]: least potent nephrotoxicant among the dichloronitrobenzenes
Percentage of Dose, Cells [2, 15]: 0.41 ^ %
Percentage of Dose, Media [2, 15]: 2.80 ^ %
Percentage of Dose, Cells [2, 16]: 0.34 ± 0.19 %
Percentage of Dose, Media [2, 16]: 1.18 ± 0.57 %
Percent of Dose, Cells [3, 17]: 0.06 ^ %
Percent of Dose, Media [3, 17]: 0.09 ^ %
Percent of Dose, Cells ([3]; −DEDTCA): 0.13 ^ %
Percent of Dose, Media ([3]; −DEDTCA): 0.31 ± 0.19 %

ONc1cc(Cl)cc(Cl)c1 [3,5-DCPHA]
nephrotoxic potential among the metabolites tested [1]: most potent nephrotoxicant
concentration giving significant increase in LDH release ([1]; 60 min exposure): ≥ 250 µM
concentration giving significant increase in LDH release ([1]; 90 min exposure): ≥ 250 µM
detection as 3,5-DCA metabolite in media and cells [3]: no 2-A-4,6-DCP, 4-A-2,6-DCP or 3,5-DCPHA detected

Nc1cc(Cl)c(O)c(Cl)c1 [4-A-2,6-DCP, 4-amino-2,6-dichlorophenol]
concentration required to increase LDH release ([1]; 90 min exposure, albumin in medium, no reference given): ≥ 250 µM
concentration increasing LDH release [9]: ≥ 50 µM
free aminochlorophenol after arylsulfatase or β-glucuronidase treatment of media or cell lysates [2, 14]: did not reveal any free 2-A-4,6-DCP or 4-A-2,6-DCP
concentration reducing uptake of p-aminohippurate (PAH) [10]: 5 µM
concentration reducing uptake of tetraethylammonium (TEA) [10]: 50 µM
detection as 3,5-DCA metabolite in media and cells [3]: no 2-A-4,6-DCP, 4-A-2,6-DCP or 3,5-DCPHA detected
nephrotoxicity in vivo ([7]; male Fischer 344 rats, 0.38 mmol/kg, i.p.): marked nephrotoxicity

CCN(CC)C(=S)S [DEDTCA, diethyldithiocarbamic acid, reference compound]
effect of inhibitor pretreatment on 3,5-DCA cytotoxicity [11]: markedly reduced 3,5-DCA cytotoxicity
effect of pretreatment on 3,5-DCA metabolite formation ([3]; DEDTCA 0.1 mM, then 3,5-DCA 1.0 mM): formation of 3,5-DCAA and 3,5-DCNB were reduced

COc1ccc2c(c1)c(CC(=O)O)c(C)n2C(=O)c1ccc(Cl)cc1 [Indomethacin]
effect of pretreatment on 3,5-DCNB-induced cytotoxicity (LDH release) [12]: tended to reduce 3,5-DCNB-induced LDH release but did not reach a significant difference

CC(=O)N[C@@H](CS)C(=O)O [N-acetyl-L-cysteine]
effect of pretreatment on 3,5-DCPHA-induced cytotoxicity (LDH release) [13]: partially attenuated
effect of pretreatment on 3,5-DCNB-induced cytotoxicity (LDH release) [12]: significantly attenuated

O=C1O[C@H]([C@@H](O)CO)C(O)=C1O [ascorbate]
effect of pretreatment on 3,5-DCPHA-induced cytotoxicity (LDH release) [13]: not effective at reducing 3,5-DCPHA cytotoxicity
effect of pretreatment on 3,5-DCNB-induced cytotoxicity (LDH release) [12]: significantly attenuated

N[C@@H](CCC(=O)N[C@@H](CS)C(=O)NCC(=O)O)C(=O)O [glutathione]
effect of pretreatment on 3,5-DCPHA-induced cytotoxicity (LDH release) [13]: fully protected
effect of pretreatment on 3,5-DCNB-induced cytotoxicity (LDH release) [12]: significantly attenuated

NNC(=O)c1ccncc1 [isoniazid]
effect of inhibitor pretreatment on 3,5-DCA cytotoxicity [11]: had no effect on 3,5-DCA cytotoxicity

O=C(O)CC(S)C(=O)O (stereo not shown) [mercaptosuccinate]
effect of pretreatment on 3,5-DCNB-induced cytotoxicity (LDH release) [12]: significantly attenuated

CC(C)(C(=O)c1cccnc1)c1cccnc1 [metyrapone]
effect of pretreatment on 3,5-DCNB-induced cytotoxicity (LDH release) [12]: significantly attenuated

CCCCCCCCN [n-octylamine]
effect of pretreatment on 3,5-DCNB-induced cytotoxicity (LDH release) [12]: significantly attenuated

CCCCOCCOCCOCc1cc2c(cc1CCC)OCO2 [piperonyl butoxide]
effect of pretreatment on 3,5-DCNB-induced cytotoxicity (LDH release) [12]: significantly attenuated

Cc1c(C)c2c(c(C)c1O)CC[C@@](C)(CCC[C@H](C)CCC[C@H](C)CCCC(C)C)O2 [α-tocopherol]
effect of pretreatment on 3,5-DCNB-induced cytotoxicity (LDH release) [12]: significantly attenuated
